Data reported in patent US20250051390A1, “NOVEL ADIPONECTIN-DERIVED PEPTOID DERIVATIVE AND USE THEREOF” (SEOUL NATIONAL UNIVERSITY HOSPITAL, priority 2021, published 2025).

Columns and labels:
AMPK phosphorylation = AMPK phosphorylation activity in mouse adipocytes (Western blot); assay type: cell-based; conditions: 3T3-L1, 10 μM, 24 hours, Western blot; APN5 = 1.0
Procedure: There were confirmed effects of the peptoid derivative of the present disclosure on the expression and receptor activity of adiponectin in mouse adipocytes as a main adiponectin production site. A mouse adipocyte cell line 3T3-L1 was treated with each of the peptoid derivatives of the present disclosure at a concentration of 10 μM and cultured for 24 hours, and then cells were obtained. Thereafter, the protein was extracted and the effect of adiponectin on AMPK phosphorylation, which was responsible for the main downstream signaling, was confirmed by Western blot.

CYP1A2 = biological target: T1, CYP1A2 (Homo sapiens, UniProt P05177); assay: CYP inhibition assay, CYP1A2; conditions: human liver microsomes 0.25 mg/ml, 10 μM, 15 minutes
T1 sequence (P05177 1-516): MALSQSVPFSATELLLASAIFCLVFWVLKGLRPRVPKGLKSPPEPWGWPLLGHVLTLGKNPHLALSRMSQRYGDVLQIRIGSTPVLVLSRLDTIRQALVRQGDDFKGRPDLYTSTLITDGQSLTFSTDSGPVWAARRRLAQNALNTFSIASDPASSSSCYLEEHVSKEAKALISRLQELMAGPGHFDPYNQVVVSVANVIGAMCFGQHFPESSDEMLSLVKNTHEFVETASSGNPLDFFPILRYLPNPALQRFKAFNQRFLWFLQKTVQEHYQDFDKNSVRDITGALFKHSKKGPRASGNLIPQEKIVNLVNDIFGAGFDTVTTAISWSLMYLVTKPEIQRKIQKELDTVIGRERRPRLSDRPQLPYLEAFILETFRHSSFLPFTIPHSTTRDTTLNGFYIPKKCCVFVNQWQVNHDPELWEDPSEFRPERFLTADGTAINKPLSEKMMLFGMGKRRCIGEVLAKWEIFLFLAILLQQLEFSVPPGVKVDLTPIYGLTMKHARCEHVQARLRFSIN
Procedure: (§1) Metabolites of each CYP isoenzyme indicator drug produced through the reaction were analyzed by LC-MS/MS using the Shimadzu Nexera XR system and TSQ vantage (Thermo).

CYP2C19 = CYP2C19 (Homo sapiens, UniProt P33261); assay: CYP inhibition assay, CYP2C19; conditions: human liver microsomes 0.25 mg/ml, 10 μM, 15 minutes
CYP2C19, sequence (P33261 whole entry): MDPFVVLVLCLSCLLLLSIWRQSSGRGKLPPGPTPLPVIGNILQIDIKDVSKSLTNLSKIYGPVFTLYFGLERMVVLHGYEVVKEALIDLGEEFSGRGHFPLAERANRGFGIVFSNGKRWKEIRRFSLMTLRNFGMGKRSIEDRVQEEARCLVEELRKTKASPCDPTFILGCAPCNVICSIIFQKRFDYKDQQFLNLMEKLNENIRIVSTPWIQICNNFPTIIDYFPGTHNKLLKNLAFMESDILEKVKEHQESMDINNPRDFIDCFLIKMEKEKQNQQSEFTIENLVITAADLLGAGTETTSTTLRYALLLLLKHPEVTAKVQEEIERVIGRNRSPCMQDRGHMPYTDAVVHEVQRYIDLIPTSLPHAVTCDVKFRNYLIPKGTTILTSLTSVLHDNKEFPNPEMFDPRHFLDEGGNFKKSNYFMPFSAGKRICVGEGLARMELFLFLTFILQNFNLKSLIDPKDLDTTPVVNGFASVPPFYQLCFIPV
Procedure: as §1

CYP2D6 = CYP2D6 (Homo sapiens, UniProt P10635); assay: CYP inhibition assay, CYP2D6; conditions: human liver microsomes 0.25 mg/ml, 10 μM, 15 minutes
CYP2D6, sequence (P10635 whole entry): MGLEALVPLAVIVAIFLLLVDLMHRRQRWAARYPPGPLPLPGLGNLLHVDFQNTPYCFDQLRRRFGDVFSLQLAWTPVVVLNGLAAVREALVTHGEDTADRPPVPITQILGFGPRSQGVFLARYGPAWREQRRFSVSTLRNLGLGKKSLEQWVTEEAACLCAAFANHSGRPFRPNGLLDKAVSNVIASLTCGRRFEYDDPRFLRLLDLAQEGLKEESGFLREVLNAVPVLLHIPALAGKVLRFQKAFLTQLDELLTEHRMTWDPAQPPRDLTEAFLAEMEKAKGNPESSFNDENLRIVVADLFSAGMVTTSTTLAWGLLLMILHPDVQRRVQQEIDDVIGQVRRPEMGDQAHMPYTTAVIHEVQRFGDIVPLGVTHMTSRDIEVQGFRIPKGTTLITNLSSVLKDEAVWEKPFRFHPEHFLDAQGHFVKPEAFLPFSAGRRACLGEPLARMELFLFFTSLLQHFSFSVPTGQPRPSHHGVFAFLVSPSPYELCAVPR
Procedure: as §1

CYP3A4 = CYP3A4 (Homo sapiens, UniProt P08684); assay: CYP inhibition assay, CYP3A4; conditions: human liver microsomes 0.25 mg/ml, 10 μM, 15 minutes
CYP3A4, sequence (P08684 whole entry): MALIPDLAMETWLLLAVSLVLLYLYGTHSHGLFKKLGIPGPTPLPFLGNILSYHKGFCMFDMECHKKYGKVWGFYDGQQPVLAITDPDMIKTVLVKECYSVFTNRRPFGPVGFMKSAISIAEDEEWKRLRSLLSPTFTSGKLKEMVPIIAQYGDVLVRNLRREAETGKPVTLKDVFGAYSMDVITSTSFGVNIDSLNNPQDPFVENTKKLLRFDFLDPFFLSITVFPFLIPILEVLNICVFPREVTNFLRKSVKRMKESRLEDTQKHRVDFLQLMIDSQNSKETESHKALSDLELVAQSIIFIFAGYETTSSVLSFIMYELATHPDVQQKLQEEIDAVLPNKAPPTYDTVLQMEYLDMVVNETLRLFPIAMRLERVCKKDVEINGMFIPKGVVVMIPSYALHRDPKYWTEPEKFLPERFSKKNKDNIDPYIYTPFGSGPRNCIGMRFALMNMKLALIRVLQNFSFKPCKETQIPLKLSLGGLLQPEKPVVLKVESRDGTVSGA
Procedure: as §1

CC(C)C[C@H](NC(=O)CN)C(=O)N[C@@H](Cc1ccc(O)cc1)C(=O)N[C@@H](Cc1ccc(O)cc1)C(=O)N[C@@H](Cc1ccccc1)C(=O)O [APN5, NH2-GLYYF-OH]
AMPK phosphorylation activity (fold change) (AMPK phosphorylation): 1.0 fold change
CYP inhibition (% of control activity) CYP1A2 (CYP1A2): 88.8 % of control activity
CYP inhibition (% of control activity) CYP2C19 (CYP2C19): 98.5 % of control activity
CYP inhibition (% of control activity) CYP2D6 (CYP2D6): 92.3 % of control activity
CYP inhibition (% of control activity) CYP3A4 (CYP3A4): 82.9 % of control activity
